Source: US11786592B2, “Compositions of cardiolipin adjuvants and methods of use thereof” (The University of Hong Kong, priority 2021, dated 2023)

Experiments:
[1] = test system: BALB/c mice immunized with human quadrivalent influenza vaccine; format: in vivo
[2] = test system: BALB/c mice immunized with human quadrivalent influenza vaccine; format: in vivo; settings: 16 days post-immunization; flow cytometry; vaccine plus cardiolipin compared to vehicle or vaccine only; FIG. 3A-3H

With `CCCCC/C=C\C/C=C\CCCCCCCC(=O)OC[C@H](COP(=O)([O-])OCC(O)COP(=O)([O-])OC[C@@H](COC(=O)CCCCCCC/C=C\C/C=C\CCCCC)OC(=O)CCCCCCC/C=C\C/C=C\CCCCC)OC(=O)CCCCCCC/C=C\C/C=C\CCCCC.[Na+].[Na+]` (stereo partly shown) [cardiolipin (C18:2)4] the “accelerated seroconversion (time post-immunization)” value ([1]; 100 μg/kg cardiolipin (C18:2)4 mixed with […] TETRA vaccine (1 microgram HA), intramuscular and subcutaneous, cardiolipin booster at day 10, compared to vehicle or vaccine only) was 7 days, the “vaccine antigen-specific antibodies in sera” value ([1]; 13 days post-immunization, 100 μg/kg cardiolipin (C18:2)4 with vaccine, compared to vehicle or vaccine only, FIG. 2A-2B (IgM, IgG)) was “significantly higher” and the “subclasses of virus-specific antibodies elicited (Th1/Th2 response)” value ([1]; serum IgG, IgG1, IgG2a, IgG2b by ELISA, FIG. 2C-2F) was “elicited both IgG2a and IgG1 subclasses of virus-specific antibodies, indicating a balanced Th1/Th2 response”. The “cells producing the examined cytokines (IFN-γ, IL-4 and IL-17A) in inguinal lymph nodes” value [2] was “significant increase”.
